Active and inactive are the calls of the source.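 How the source made its calls: active means compounds giving half or more protection of infected cells from virus-caused growth loss, again on retest; inactive means the rest.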 Where a SMILES comes first, the peptide text is derived from it. Bridges are numbered along the chain shown (N, C = ends). Roman numbers before positions name the chains, in order. The star is where a group is joined. Cbz = O=C(OCc1ccccc1)*
Tested on: CEM cells HIV-1 protection, formazan growth assay
Experiment: NCI AIDS Antiviral Assay
Details: for IC50: measured here: growth of uninfected CEM cells
Summary of the method: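 Human CEM cells, uninfected and HIV-1-infected, exposed to five drug concentrations; growth measured by soluble formazan assay and scored as percent protection from infection, with protecting compounds retested.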

SMILES | EC50 [µM] | IC50 [µM] | outcome
O=C(N=Nc1ccccc1Cl)NNc1ccccc1Cl | > 200 | 31.6 | –
C[C@]12CCC(=O)C=C1CC[C@@H]1C2CC[C@]2(C)c3nn(-c4ccccc4)nc3CC12 (some centres not stated) | – | – | inactive
O=c1[nH]c2nncn2c2ccccc12 | > 200 | > 200 | –
O=C(c1ccc([N+](=O)[O-])cc1)N1CCCC1 | > 200 | > 200 | –
O=C(Nc1ccccc1)N1C(c2ccccc2)=N[C@@H](c2ccccc2)[C@@H]1c1ccccc1 | – | – | inactive
CC(C)CCC[C@@H](C)[C@H]1CC[C@H]2[C@@H]3CC[C@H]4C[C@@H](CCC=C(c5cc(Cl)c(OCc6ccc(C(=O)O)cc6)c(C(=O)O)c5)c5cc(Cl)c(OCc6ccc(C(=O)O)cc6)c(C(=O)O)c5)CC[C@]4(C)[C@H]3CC[C@]12C | 2.51 | 50.1 | –
CCOC(=O)COC(=O)c1cc(C(=CCC[C@H]2CC[C@@]3(C)[C@@H](CC[C@@H]4[C@@H]3CC[C@]3(C)[C@@H](C(C)CCCC(C)C)CC[C@@H]43)C2)c2cc(Cl)c(OCC(=O)OCC)c(C(=O)OCC(=O)OCC)c2)cc(Cl)c1OCC(=O)OCC (some centres not stated) | > 200 | > 200 | –
CN1C(=O)Cn2c(n[nH]c(=O)c2=O)-c2cc(Cl)ccc21 | > 302 | > 302 | –
COC(=O)C(c1ccc(OC)cc1)N1C(=O)[C@@H](NC(=O)c2ccccc2)[C@H]1[C@@H](C)O (some centres not stated) | > 200 | > 200 | –
O=[N+]([O-])c1ccc(-n2nc3ccc4nonc4c3n2)cc1 | > 200 | > 200 | –
Cc1cccc(N=Nc2c(C)nn(C(=O)c3ccc(O)cc3)c2C)c1 | – | – | inactive
CCOC(=O)C(Cc1ccc(O)cc1)NC(=O)C(N)CSSCC(N)C(=O)NC(Cc1ccc(O)cc1)C(=O)OCC (stereo not drawn) (I: H-Cys-Tyr-OEt / II: H-Cys-Tyr-OEt; disulfide I:1-II:1; configuration not given here) | > 200 | > 200 | –
Cc1cc(S(=O)(=O)N=C2N(Cc3ccccc3)CCN2Cc2ccccc2)c(S)cc1Cl | > 200 | > 200 | –
CCOC(=O)C(=C/C=C/N[C@@H](Cc1c[nH]c2ccccc12)C(N)=O)C(=O)OCC | > 18.2 | > 18.2 | –
Cc1coc2c1C[C@@]1(C)[C@H](CCC[C@@H]1C)[C@H]2O | > 200 | 27.5 | –
COP(=O)(OC)C(Cc1cn(C(C)=O)c2ccccc12)C(=O)O (configuration not stated) | > 200 | > 200 | –
CC1=C(C#N)C(=N)OC1(C)C1CC(=O)C=CC1=O (configuration not stated) | > 200 | 10.5 | –
O=c1[nH]c(Nc2nc3ccccc3[nH]2)nc2c1CCC2 | > 200 | > 200 | –
CN(C)CCn1c2c(c3ccccc31)CCc1ccccc1-2 | > 200 | 15.5 | –
O=[N+]([O-])C(=C(N1CCOCC1)N1CCOCC1)/C(Cl)=C(\Cl)Br | > 200 | 9.77 | –
CNC(=O)NCCc1c[nH]c2ccccc12 | > 200 | > 200 | –
Cc1cc(Cl)ccc1NC(=O)CC1SC(=NC(=O)c2ccccc2Cl)NC1=O (configuration not stated) | > 16.6 | > 16.6 | –

SMILES | EC50 [µM] | IC50 [µM] | outcome
Cc1cn(C2CCCCC2O)c(=O)[nH]c1=O (configuration not stated) | > 302 | > 302 | –
CC(=O)OC12C=CC(=O)N1c1ccccc1C(=O)O2 (configuration not stated) | – | – | inactive
CCOC(=O)C(Cc1ccccc1)NC(=O)c1ccc(N=NN(C)C)cc1 (configuration not stated) | > 51.3 | > 51.3 | –
Cc1ccc(/C=C/C(=O)C(C)C)cc1 | > 200 | 70.8 | –
CS(=O)(=O)c1cnnc2ccccc12 | > 513 | > 513 | –
Cc1ccc2c(c1)C(=O)C(Cc1ccccc1C(=O)O)C2 (configuration not stated) | > 200 | 178 | –
O=C(O[C@H]1[C@@H]2C=CO[C@@H](OC3OC(CO)C(O)C(O)C3O)[C@@H]2[C@@]2(CO)O[C@@H]12)c1ccc(O)c(O)c1 (some centres not stated) | – | – | inactive
Cc1cc(=O)c2c([nH]1)c1c(c3[nH]c(C)cc(=O)c32)Oc2ccccc2O1 | > 129 | 93.3 | –
CCCCCCCCC1C(C)c2c([nH]c3ccccc23)C2C(=O)N(c3ccccc3)C(=O)C21 (configuration not stated) | – | – | inactive
CCC1OC(=O)C(C)C(OC2CC(C)(O)C(O)C(C)O2)C(C)C(O)C(C)(O)CC(C)C(=O)C(C)C(O)C1C (configuration not stated) | > 229 | 21.4 | –
O=S1c2ccccc2N=C(c2ccc(Cl)cc2)CC1c1cccs1 (configuration not stated) | > 7.41 | > 7.41 | –
CCO/N=[N+](\[O-])N(CC)CC | > 9770 | 8710 | –
O=S(=O)(Nc1nnc2c3ccccc3ccn12)c1ccc(F)cc1S | 214 | 251 | –
O=C1C2CN(Cc3ccccc3)CC1CN(CC1CC1)C2 | > 240 | > 240 | –
O=[N+]([O-])c1ccc(O)c(/C=N\NC(=S)Nc2ccc(F)cc2)c1 | > 77.6 | > 77.6 | –
CCOC(=O)c1cc2c([nH]1)c(O)cc1c2ccn1Cc1ccccc1 | > 200 | 29.5 | –
O=C(CCC(=O)Nc1ccc(Cl)cc1)CC(=O)c1ccc2ccccc2c1 | > 245 | > 245 | –
CCCCn1c(=O)[nH]c2c(N)ncnc21 | > 200 | > 200 | –
CCCCCCCCCCCCCCCCOCC(Cl)CP(=O)(O)OP(=O)(O)OCC1OC(n2cnc3c(N)ncnc32)C(O)C1O (configuration not stated) | > 100 | > 100 | –
Cc1cn(C2CC(ONC(N)=O)C(CO[Si](C)(C)C(C)(C)C)O2)c(=O)[nH]c1=O (configuration not stated) | > 200 | 105 | –
O=C1C(c2ccc([N+](=O)[O-])cc2)=[N+]([O-])c2ccccc21 | – | – | inactive
O=C(/C=C/c1ccc(O)c(O)c1)NC(CO)C(=O)O (configuration not stated) | > 200 | 28.8 | –

SMILES | EC50 [µM] | IC50 [µM] | outcome
COC(=O)C(C(=O)C(=O)NC1Nc2ccc(C)cc2S1)c1nc2ccc(Cl)cc2[nH]c1=O (configuration not stated) | > 28.8 | > 28.8 | –
CCC1(CC(=O)N(C)C)CCCN(C(=O)Oc2ccccc2)C1 (configuration not stated) | > 31.6 | > 31.6 | –
O=P(Oc1ccccc1)(Oc1ccccc1)N1CCOCC1 | > 200 | 170 | –
COc1ccc2c(c1)[C@@H](NC(C)=O)CCc1cc(OC)c(OC)c(OC)c1-2 | > 0.0708 | 0.011 | –
CCC(C)C(NC(=O)C1CCCN1C(=O)OCc1ccccc1)C(=O)O (stereo not drawn) (Cbz-Pro-Ile-OH; configuration not given here) | > 692 | > 692 | –
CCOC(=O)/C(=C\n1c(=O)[nH]c(=O)[nH]c1=S)C(=O)c1ccccc1 | – | – | inactive
COC(=O)c1cc(=O)[nH]c2c1c(=O)n(C)c(=O)n2C | > 200 | > 200 | –
Cc1ccc2oc(=O)c(C#N)c(/C=C/c3cccc(Br)c3)c2c1 | > 100 | > 100 | –
COc1cc2cc(C(=O)N3CC(CCl)c4c3cc(N(C)C)c3ccccc43)[nH]c2c(OC)c1OC (configuration not stated) | > 0.2 | 0.0129 | –
COc1c(O)c2c(=O)cc(OC)c3c4c(OC)cc(=O)c5c(O)c(OC)c6c(c(c1C(C(C)=O)C6C(C)O)c23)c54 (configuration not stated) | > 20 | 0.316 | –
COc1ccc(N)c(CC2c3ccccc3CCN2C)c1 (configuration not stated) | – | – | inactive
CCN(CC)c1ccc2cc(S(=O)(=O)c3ccccc3)c(=O)oc2c1 | – | – | inactive
Cn1nc(-c2ccccc2)c(C(=O)/C=C/c2ccccc2)c(N2CCOCC2)c1=O | > 79.4 | > 79.4 | –
O=C(NCc1ccccc1)/C(=C/c1ccc2c(c1)OCO2)NC(=O)c1ccccc1 | > 200 | > 200 | –
C=CCCCCCCCCCCCC1CCC(CC)N1 (configuration not stated) | > 240 | > 240 | –
FC(F)(F)c1cc(Cl)c2ccc3ccccc3c2n1 | – | 12.6 | inactive
CCOC(=O)C1C(=O)c2cccc(OC)c2C2COC(=O)N12 (configuration not stated) | > 251 | 229 | –
CCOP(=O)(OCC)C(N)C(C)CC (configuration not stated) | > 479 | > 479 | –
Cc1ccsc1/C=N/Nc1cc(C)c2cccc(C)c2n1 | > 200 | 138 | –
CN(C)CCc1ccc(Cl)cc1Cl | > 977 | 407 | –
C/C(=N\N(C)C)c1sc(-n2nc(-c3ccccc3)cc2-c2ccccc2)nc1C | > 46.8 | > 46.8 | –
O=[N+]([O-])c1cccc2nnccc12 | > 200 | 22.9 | –

SMILES | EC50 [µM] | IC50 [µM] | outcome
NC(=S)NNC(=S)NC(=O)c1ccco1 | > 200 | > 200 | –
CN(C)Cc1cc(C(=O)/C=C/c2ccc(Br)cc2)cc(CN(C)C)c1O | > 200 | 4.47 | –
CC(C)N1C(C)[C@@H](c2ccccc2)O[P@]1(=O)CC1=CCCCC1 (some centres not stated) | – | – | inactive
O=C1CCC2(c3ccc(F)cc3)Nc3cc(Cl)ccc3N12 (configuration not stated) | – | – | inactive
CC12CCC(C(Nc3ccccn3)C1=O)C2(C)C (configuration not stated) | – | – | inactive
O=C(Nc1ccc2oc3ccc(Cl)cc3c(=O)c2c1)c1ccc(Cl)cc1Cl | > 12.3 | > 12.3 | –
COc1ccc(/C(=N\N=C(N)N)C(c2ccc(OC)cc2)C2OC(=O)c3ccccc32)cc1 (configuration not stated) | > 3.24 | > 3.24 | –
CCOC(=O)C(C(C)=O)C(c1ccc(N(C)C)cc1)C(C(C)=O)C(=O)OCC (configuration not stated) | > 200 | > 200 | –
CCN(CC)c1oc(N(CC)CC)c(C(=O)Nc2ccccn2)c(=O)c1C(C)=O | > 631 | 251 | –
NC(CSSCC(N)=NC1CCCCC1)=NC1CCCCC1 | > 200 | 95.5 | –
O=[N+]([O-])c1ccc(S(=O)(=O)NN=C2CCCCC2)cc1 | > 316 | 178 | –
COc1cccc2c1C(CO)N1C(C#N)C3CC(C(=O)O)C(C1C2)N3C (configuration not stated) | > 0.355 | 0.0372 | –
O=C1c2ccccc2C(=O)c2sccc21 | > 200 | 7.24 | –
Cc1ccccc1C1(Br)C(=O)c2ccccc2C1=O | > 200 | 33.9 | –
C/C(=N/NC(=S)Nc1cccc(Cl)c1)c1cccc(/C(C)=N\NC(=S)Nc2cccc(Cl)c2)n1 | > 200 | 5.25 | –
CCN(CC)CCCOP(=O)(OCCCN(CC)CC)OCCCN(CC)CC | 20 | > 200 | –
C[C@@H]1c2c([nH]c(=O)[nH]c2=O)O[C@@H]1c1ccccc1 | > 200 | > 200 | –
CNC(=O)CN(CC(N)=O)C(N)=O | > 191 | > 191 | –
O=C1NC(c2ccccc2)C1N(Cc1ccccc1)Cc1ccccc1 (configuration not stated) | > 200 | > 200 | –
